Source: the NIST ThermoML archive (doi:10.1021/je300526w)
± gives the expanded uncertainty stated by the source.

Assay: xn = mol fraction of the nth substance listed
Settings: Liquid, Vibrating tube method

**Q.** With `CCCCCCCCCCCCCCCCCC` [octadecane] + CCCCCCCCCC as the compound, how does the mass density (295.1 K, 1000 kPa, x2 = 0.5) read?
**A.** 759.7 ± 0.4 kg/m3

**Q.** What about the mass density (295.1 K, 2000 kPa, x2 = 0.5) of the same compound?
**A.** 760.4 ± 0.4 kg/m3

**Q.** What about the mass density (295.1 K, 3000 kPa, x2 = 0.5) of the same compound?
**A.** 761.1 ± 0.4 kg/m3

**Q.** What about the mass density (295.1 K, 4000 kPa, x2 = 0.5) of the same compound?
**A.** 761.7 ± 0.4 kg/m3

**Q.** And the mass density (295.1 K, 5000 kPa, x2 = 0.5)?
**A.** 762.4 ± 0.4 kg/m3

**Q.** What about the mass density (295.1 K, 6000 kPa, x2 = 0.5) of the same compound?
**A.** 763.1 ± 0.4 kg/m3

**Q.** What about the mass density (295.1 K, 7000 kPa, x2 = 0.5) of the same compound?
**A.** 763.7 ± 0.4 kg/m3

**Q.** What about the mass density (295.1 K, 8000 kPa, x2 = 0.5) of the same compound?
**A.** 764.4 ± 0.4 kg/m3

**Q.** What about the mass density (295.1 K, 9000 kPa, x2 = 0.5) of the same compound?
**A.** 765.1 ± 0.4 kg/m3

**Q.** What about the mass density (295.1 K, 10000 kPa, x2 = 0.5) of the same compound?
**A.** 765.8 ± 0.4 kg/m3

**Q.** And the mass density (295.2 K, 1000 kPa, x2 = 0.75)?
**A.** 745.7 ± 0.4 kg/m3

**Q.** What about the mass density (295.2 K, 2000 kPa, x2 = 0.75) of the same compound?
**A.** 746.4 ± 0.4 kg/m3

**Q.** What about the mass density (295.2 K, 3000 kPa, x2 = 0.75) of the same compound?
**A.** 747.1 ± 0.4 kg/m3

**Q.** What about the mass density (295.2 K, 4000 kPa, x2 = 0.75) of the same compound?
**A.** 747.9 ± 0.4 kg/m3

**Q.** And the mass density (295.2 K, 5000 kPa, x2 = 0.75)?
**A.** 748.6 ± 0.4 kg/m3

**Q.** And the mass density (295.2 K, 6000 kPa, x2 = 0.75)?
**A.** 749.3 ± 0.4 kg/m3

**Q.** What about the mass density (295.2 K, 7000 kPa, x2 = 0.75) of the same compound?
**A.** 750 ± 0.4 kg/m3

**Q.** And the mass density (295.2 K, 8000 kPa, x2 = 0.75)?
**A.** 750.7 ± 0.4 kg/m3

**Q.** What about the mass density (295.2 K, 9000 kPa, x2 = 0.75) of the same compound?
**A.** 751.4 ± 0.4 kg/m3

**Q.** What about the mass density (295.2 K, 10000 kPa, x2 = 0.75) of the same compound?
**A.** 752.1 ± 0.4 kg/m3

**Q.** What about the mass density (295.8 K, 1000 kPa, x2 = 0.9) of the same compound?
**A.** 733.9 ± 0.4 kg/m3

**Q.** And the mass density (295.8 K, 2000 kPa, x2 = 0.9)?
**A.** 734.7 ± 0.4 kg/m3

**Q.** And the mass density (295.8 K, 3000 kPa, x2 = 0.9)?
**A.** 735.4 ± 0.4 kg/m3

**Q.** And the mass density (295.8 K, 4000 kPa, x2 = 0.9)?
**A.** 736.2 ± 0.4 kg/m3

**Q.** And the mass density (295.8 K, 5000 kPa, x2 = 0.9)?
**A.** 736.9 ± 0.4 kg/m3

**Q.** And the mass density (295.8 K, 6000 kPa, x2 = 0.9)?
**A.** 737.6 ± 0.4 kg/m3

**Q.** What about the mass density (295.8 K, 7000 kPa, x2 = 0.9) of the same compound?
**A.** 738.4 ± 0.4 kg/m3

**Q.** What about the mass density (295.8 K, 8000 kPa, x2 = 0.9) of the same compound?
**A.** 739.1 ± 0.4 kg/m3

**Q.** And the mass density (295.8 K, 9000 kPa, x2 = 0.9)?
**A.** 739.9 ± 0.4 kg/m3

**Q.** What about the mass density (295.8 K, 10000 kPa, x2 = 0.9) of the same compound?
**A.** 740.6 ± 0.4 kg/m3
